Structures can show the parent of a compound that is named as a salt. ± gives the standard error.
Experiments:
621-102 (TSC2-deficient) [1] = assay: relative viability vs DMSO (fraction); higher = less cytotoxic; conditions: serum: 0.1% FBS, 72 h
621-102 (TSC2-deficient) [2] = assay: relative viability vs DMSO; higher = less cytotoxic; conditions: serum: 10% FBS, 72 h
621-103 (TSC2-rescued) = assay: as above; conditions: serum: 10% FBS, 72 h
UMB1949 (TSC2-deficient) = assay: relative viability vs DMSO (fraction); higher = less cytotoxic; conditions: serum: 0.1% FBS, 72 h;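 further: renal angiomyolipoma cell lines screened in 384-well plates, viability normalized per plate to DMSO-treated cells, each plate carrying 50 nM rapamycin and 1 µM staurosporine controls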

SMILES | relative viability (621-102 (TSC2-deficient) [1]; 0.0128 nM) | relative viability (621-102 (TSC2-deficient) [1]; 0.064 nM) | relative viability (621-102 (TSC2-deficient) [1]; 0.32 nM) | relative viability (621-102 (TSC2-deficient) [1]; 1.6 nM) | relative viability (621-102 (TSC2-deficient) [1]; 8 nM) | relative viability (621-102 (TSC2-deficient) [1]; 40 nM) | relative viability (621-102 (TSC2-deficient) [1]; 200 nM) | relative viability (621-102 (TSC2-deficient) [1]; 1000 nM) | relative viability (621-102 (TSC2-deficient) [1]; 5000 nM) | relative viability (621-102 (TSC2-deficient) [2]; 0.0001 µM) | relative viability (621-102 (TSC2-deficient) [2]; 0.001 µM) | relative viability (621-102 (TSC2-deficient) [2]; 0.01 µM) | relative viability (621-102 (TSC2-deficient) [2]; 0.1 µM) | relative viability (621-102 (TSC2-deficient) [2]; 1 µM) | relative viability (621-102 (TSC2-deficient) [2]; 10 µM) | relative viability (621-103 (TSC2-rescued); 0.0001 µM) | relative viability (621-103 (TSC2-rescued); 0.001 µM) | relative viability (621-103 (TSC2-rescued); 0.01 µM) | relative viability (621-103 (TSC2-rescued); 0.1 µM) | relative viability (621-103 (TSC2-rescued); 1 µM) | relative viability (621-103 (TSC2-rescued); 10 µM) | relative viability (UMB1949 (TSC2-deficient); 0.0128 nM) | relative viability (UMB1949 (TSC2-deficient); 0.064 nM) | relative viability (UMB1949 (TSC2-deficient); 0.32 nM) | relative viability (UMB1949 (TSC2-deficient); 1.6 nM) | relative viability (UMB1949 (TSC2-deficient); 8 nM) | relative viability (UMB1949 (TSC2-deficient); 40 nM) | relative viability (UMB1949 (TSC2-deficient); 200 nM) | relative viability (UMB1949 (TSC2-deficient); 1000 nM) | relative viability (UMB1949 (TSC2-deficient); 5000 nM)
CN(C)C1CCN(C(=O)c2ccc(NC(=O)Nc3ccc(-c4nc(N5CCOCC5)nc(N5CCOCC5)n4)cc3)cc2)CC1 [PKI587] | 0.515 | 0.487 | 0.471 | 0.338 | 0.266 | 0.196 | 0.128 | 0.0333 | 0.0113 |  |  |  |  |  |  |  |  |  |  |  |  |  |  |  |  |  |  |  |  | 
C#Cc1cccc(Nc2ncnc3cc(OC)c(OCCCCCCC(=O)NO)cc23)c1 [CUDC-101] | 0.714 | 0.529 | 0.505 | 0.386 | 0.343 | 0.123 | 0.127 | 0.005 | 0.0015 | 110.7 ± 0.61% | 108 ± 6.5% | 104 ± 1.9% | 95.14 ± 0.26% | 85.2 ± 2% | 30.6 ± 1.5% | 94.9 ± 1.2% | 99.73 ± 0.74% | 97.8 ± 1.4% | 93.79 ± 0.69% | 83.8 ± 2.3% | 2.28 ± 0.2% |  |  |  |  |  |  |  |  | 
Cc1ccc([N+](=O)[O-])cc1S(=O)(=O)N(C)/N=C/c1cnc2ccc(Br)cn12 [PIK-75 Hydrochloride] |  |  |  |  |  |  |  |  |  |  |  |  |  |  |  |  |  |  |  |  |  | 0.512 | 0.42 | 0.371 | 0.417 | 0.126 | 0.00679 | 0.00475 | 0.00356 | 0.00221
CCC[C@H](Nc1nc(-c2ccc(NC(=O)NCC)c(OC)c2)ncc1C)c1cccnc1 [CYT997] |  |  |  |  |  |  |  |  |  | 87.8 ± 1.3% | 95.67 ± 0.75% | 48.6 ± 1.6% | 39.1 ± 0.56% | 36.2 ± 0.95% | 41 ± 1.1% | 82.2 ± 1.5% | 78.28 ± 0.4% | 40.2 ± 0.82% | 26.3 ± 2.2% | 24.3 ± 0.3% | 25.4 ± 2% | 0.622 | 0.0694 | 0.00719 | 0.0079 | 0.00595 | 0.00742 | 0.00575 | 0.00558 | 0.00511
COC1=C2C[C@@H](C)C[C@H](OC)[C@H](O)[C@@H](C)/C=C(\C)[C@H](OC(N)=O)[C@@H](OC)/C=C\C=C(/C)C(=O)NC(=CC1=O)C2=O [Geldanamycin] | 0.476 | 0.259 | 0.399 | 0.172 | 0.306 | 0.27 | 0.12 | 0.0204 | 0.0125 | 90.7 ± 2.4% | 91.7 ± 1.6% | 62.3 ± 3% | 39.82 ± 0.13% | 28.8 ± 1.5% | 8.32 ± 0.19% | 98.8 ± 6.2% | 77.8 ± 1.1% | 33.3 ± 7.4% | 10.09 ± 0.062% | 3.46 ± 0.37% | 3.05 ± 0.2% |  |  |  |  |  |  |  |  | 
CCS(=O)(=O)c1cccc(-c2cc(C(=O)NC3CCN(C)CC3)c(C)c3[nH]c4ncc(C)cc4c23)c1 [TAK-901] |  |  |  |  |  |  |  |  |  | 94.4 ± 2% | 98.3 ± 4.1% | 90 ± 2.7% | 75.451 ± 0.045% | 45.4 ± 2% | 7.72 ± 0.56% | 108 ± 2.1% | 97 ± 2% | 81.4 ± 1.8% | 72.5 ± 1.6% | 28.2 ± 2.3% | 5.6 ± 0.7% | 0.561 | 0.0956 | 0.0821 | 0.0562 | 0.0574 | 0.0411 | 0.00479 | 0.00175 | 0.0045
COc1cccc2c1C(=O)c1c(O)c3c(c(O)c1C2=O)C[C@@](O)(C(=O)CO)C[C@@H]3O[C@H]1C[C@H](N)[C@H](O)[C@H](C)O1 [Doxorubicin (adriamycin)] | 0.343 | 0.2 | 0.0923 | 0.107 | 0.128 | 0.0761 | 0.0129 | 0.00359 | 0.00442 |  |  |  |  |  |  |  |  |  |  |  |  |  |  |  |  |  |  |  |  | 
CCN(CC)CCOc1ccc(C(=C(Cl)c2ccccc2)c2ccccc2)cc1 [Clomifene citrate (Serophene)] |  |  |  |  |  |  |  |  |  | 108 ± 1.1% | 105 ± 6% | 104 ± 3.9% | 102 ± 2.1% | 105 ± 1.7% | 58.6 ± 10% | 102 ± 3.5% | 99.3 ± 1.9% | 97.2 ± 5.9% | 96.14 ± 0.13% | 101 ± 4.7% | 14 ± 0.71% |  |  |  |  |  |  |  |  | 
CCC(=O)O[C@H]1CC[C@H]2[C@@H]3CCC4=CC(=O)CC[C@]4(C)[C@H]3CC[C@]12C [Testosterone propionate (Agovirin)] |  |  |  |  |  |  |  |  |  | 104 ± 2.2% | 104 ± 1.2% | 98.7 ± 3.7% | 104 ± 1.1% | 104 ± 2.2% | 103 ± 4.2% | 109 ± 3.1% | 105 ± 1.9% | 104 ± 1.2% | 98.7 ± 2.8% | 102.1 ± 0.64% | 87.6 ± 1.6% |  |  |  |  |  |  |  |  | 
COc1ccc(C(CN(C)C)C2(O)CCCCC2)cc1 (centres undefined) [Venlafaxine HCl] |  |  |  |  |  |  |  |  |  | 74.8 ± 0.85% | 101 ± 2.7% | 96.3 ± 9.2% | 107 ± 5.2% | 91.33 ± 0.33% | 91.6 ± 2.6% | 85.8 ± 1.9% | 109.5 ± 0.37% | 101 ± 4.2% | 99.6 ± 1.8% | 96.1 ± 5% | 90.61 ± 0.47% |  |  |  |  |  |  |  |  | 
N=C(N)NC(=N)NCCc1ccccc1 [Phenformin HCl] |  |  |  |  |  |  |  |  |  | 114.3 ± 0.035% | 113.5 ± 0.44% | 113 ± 1.9% | 112 ± 1.7% | 110 ± 8% | 105.3 ± 0.58% | 101 ± 5.7% | 102 ± 2.7% | 99.8 ± 1.6% | 104 ± 3.9% | 101 ± 5.7% | 101.9 ± 0.52% |  |  |  |  |  |  |  |  | 
COc1cccc(-c2cc(=O)c3ccccc3o2)c1N |  |  |  |  |  |  |  |  |  | 109 ± 2.8% | 103 ± 3% | 104.2 ± 0.83% | 104 ± 6% | 107.8 ± 0.69% | 109 ± 2.6% | 100 ± 2.6% | 99.7 ± 1.8% | 103 ± 1.9% | 99.8 ± 1.2% | 98.6 ± 2.6% | 97.6 ± 3.2% |  |  |  |  |  |  |  |  | 
CCCS(=O)(=O)Nc1ccc(F)c(C(=O)c2c[nH]c3ncc(Cl)cc23)c1F [PLX-4720] |  |  |  |  |  |  |  |  |  | 108 ± 2.7% | 111 ± 4.3% | 107 ± 4.4% | 99.7 ± 4.8% | 101 ± 3.2% | 101 ± 1.9% | 102 ± 2.3% | 100.7 ± 0.75% | 99.2 ± 1.6% | 99.5 ± 1.8% | 99.18 ± 0.44% | 103.4 ± 0.45% |  |  |  |  |  |  |  |  | 
Nc1cc(C(F)(F)F)c(-c2cc(N3CCOCC3)nc(N3CCOCC3)n2)cn1 [BKM120 (NVP-BKM120)] |  |  |  |  |  |  |  |  |  | 97 ± 2% | 102 ± 3.6% | 95.9 ± 2.2% | 92.9 ± 2.6% | 71.9 ± 3.6% | 20.01 ± 0.19% | 102 ± 2.4% | 112 ± 2.3% | 109.19 ± 0.024% | 104 ± 5% | 58.5 ± 2.1% | 21 ± 0.97% |  |  |  |  |  |  |  |  | 
O=C(O[C@H]1C[C@H]2CC[C@@H](C1)[N+]21CCCC1)C(O)(c1ccccc1)c1ccccc1 [Trospium chloride (Sanctura)] |  |  |  |  |  |  |  |  |  | 116 ± 2.6% | 99.2 ± 1.8% | 110 ± 5.9% | 95.4 ± 6.1% | 112 ± 5% | 110 ± 3.5% | 82.71 ± 0.81% | 91.5 ± 2.9% | 93.15 ± 0.86% | 102 ± 3.1% | 98.6 ± 5.3% | 92.1 ± 4.1% |  |  |  |  |  |  |  |  | 
Cc1cn([C@H]2C=C[C@@H](CO)O2)c(=O)[nH]c1=O [Stavudine] |  |  |  |  |  |  |  |  |  | 75.4 ± 3.2% | 76.7 ± 0.81% | 81.206 ± 0.072% | 89.1 ± 8.5% | 83.4 ± 2.3% | 71.2 ± 1.9% | 105 ± 1.2% | 99.6 ± 5.1% | 110 ± 5.4% | 109 ± 5.7% | 93.2 ± 2.2% | 91.2 ± 1.3% |  |  |  |  |  |  |  |  | 
